{
  "source": "paper PMC6512342",
  "about": "(Biochemical pharmacology, 2018)",
  "molecules": {"B1": {"name": "CYP2D6 (CYP2D6 Supersomes) (Homo sapiens) (protein)", "chain": "MGLEALVPLAVIVAIFLLLVDLMHRRQRWAARYPPGPLPLPGLGNLLHVDFQNTPYCFDQLRRRFGDVFSLQLAWTPVVVLNGLAAVREALVTHGEDTADRPPVPITQILGFGPRSQGVFLARYGPAWREQRRFSVSTLRNLGLGKKSLEQWVTEEAACLCAAFANHSGRPFRPNGLLDKAVSNVIASLTCGRRFEYDDPRFLRLLDLAQEGLKEESGFLREVLNAVPVLLHIPALAGKVLRFQKAFLTQLDELLTEHRMTWDPAQPPRDLTEAFLAEMEKAKGNPESSFNDENLRIVVADLFSAGMVTTSTTLAWGLLLMILHPDVQRRVQQEIDDVIGQVRRPEMGDQAHMPYTTAVIHEVQRFGDIVPLGVTHMTSRDIEVQGFRIPKGTTLITNLSSVLKDEAVWEKPFRFHPEHFLDAQGHFVKPEAFLPFSAGRRACLGEPLARMELFLFFTSLLQHFSFSVPTGQPRPSHHGVFAFLVSPSPYELCAVPR"}},
  "key": {"CYP2D6": {"test_system": "CYP2D6", "details": "read-out: KM for BMAMC; CYP2D6-containing bacterial membranes; cited from earlier work"}, "[1]": {"biological_target": "T1, human CYP2D6 (CYP2D6-incorporated proteoliposomes) (Homo sapiens, UniProt P10635)", "assay": "Substrate-induced spin shift titration, CYP2D6-PLS", "assay_type": "binding", "details": "for Kd: dissociation constant (KD), spin shift titration"}, "human CYP2D6": {"biological_target": "human CYP2D6 (Homo sapiens, UniProt P10635)", "assay": "Substrate-induced spin shift titration, purified CYP2D6 in solution", "assay_type": "binding", "details": "for maximal amplitude of the spin shift: purified CYP2D6 in solution"}, "[2]": {"details": "healthy volunteers, recreational dose 100–150 mg; cited from earlier work"}, "[3]": {"assay": "MDMA liver-to-blood ratio and liver concentration", "details": "estimated from plasma peak and liver-to-blood ratio"}, "[4]": {"biological_target": "T1, human CYP2D6 (CYP2D6-incorporated proteoliposomes)", "assay": "Spectroscopic study of MDMA-dependent MIC formation in CYP2D6-PLS", "assay_type": "biochemical"}, "[5]": {"biological_target": "T1, human CYP2D6 (CYP2D6-incorporated proteoliposomes)", "assay": "MDMA-dependent time-dependent inhibition"}, "[6]": {"biological_target": "T1, human CYP2D6 (CYP2D6-incorporated proteoliposomes)", "assay": "MDMA utilization and DHMA formation in CYP2D6-PLS", "assay_type": "in vitro ADME"}, "[7]": {"biological_target": "T2, CYP2D6 (CYP2D6 Supersomes) (Homo sapiens, UniProt P10635)", "assay": "Spectroscopic study of MDMA-dependent MIC formation in CYP2D6-SS", "assay_type": "biochemical", "details": "100 μM MDMA, exponential fit"}, "[8]": {"biological_target": "T2, CYP2D6 (CYP2D6 Supersomes)", "assay": "MDMA-dependent TDI in CYP2D6-SS with BMAMC as probe substrate", "details": "100 μM MDMA, exponential fit"}, "CYP3A4": {"test_system": "CYP3A4", "details": "cited from earlier work"}, "[9]": {"substrate": "CCCCNCc1cc(=O)oc2cc(OC)ccc12", "assay": "Fluorometric determination of CYP2D6 activity with BMAMC in CYP2D6-SS", "assay_type": "biochemical, human", "details": "other: CYP2D6-SS, 30 °C"}, "[10]": {"details": "CYP2D6-PLS, 100 μM MDMA, exponential fit"}, "[11]": {"details": "kinetic model fit, kinetics of MIC formation"}, "[12]": {"details": "kinetic model fit, kinetics of DHMA production"}},
  "note": "Several values for one entry are separate records, joined by “and”; a condition that tells them apart may be missing. Equal entries are not always repeated.",
  "data": [
    {"molecule": "CCCCNCc1cc(=O)oc2cc(OC)ccc12", "note": "[BMAMC, N-butyl 7-methoxy-4-(aminomethyl)-coumarin]", "values": [
      {"measurement": "Km", "setting": "CYP2D6", "result": 1.5, "unit": "µM"}
    ]},
    {"molecule": "COc1ccc2c(c1)[C@]13CCCC[C@@H]1[C@H](C2)N(C)CC3", "note": "[DXM, Dextromethorphan]", "values": [
      {"measurement": "maximal amplitude of the spin shift (Amax)", "setting": "[1]", "result": "25% and 24.7±0.4%"},
      {"measurement": "Kd", "setting": "[1]", "result": "52 µM and 53.2 µM"},
      {"measurement": "Kd", "setting": "human CYP2D6", "result": "45.7 ± 3.1", "unit": "µM"},
      {"measurement": "maximal amplitude of the spin shift", "setting": "human CYP2D6", "result": "11.9±1.8", "unit": "%"}
    ]},
    {"molecule": "CNC(C)Cc1ccc2c(c1)OCO2", "note": "(stereo not drawn) [MDMA, 3,4-methylenedioxymethamphetamine]", "values": [
      {"measurement": "peak concentration in blood plasma", "setting": "[2]", "result": 1, "unit": "pM"},
      {"measurement": "physiological concentration of MDMA in human liver", "setting": "[3]", "result": "≤ 10", "unit": "pM"},
      {"measurement": "Amax (MIC)", "setting": "[4]; [10]", "result": 37, "unit": "%"},
      {"measurement": "Kobs (MIC)", "setting": "[4]; [10]", "result": 0.085, "unit": "min⁻¹"},
      {"measurement": "maximal amplitude of MIC formation", "setting": "[4]; CYP2D6-PLS, saturating MDMA", "result": "45 ± 3 % of the total P450 content"},
      {"measurement": "Kd", "setting": "[4]; kD, kinetic model fit, kinetics of MIC formation, k2/k1 with k1 fixed", "result": 55.5, "unit": "µM"},
      {"measurement": "k3", "setting": "[4]; [11]", "result": 1.7, "unit": "min⁻¹"},
      {"measurement": "k4", "setting": "[4]; [11]", "result": 0.167, "unit": "min⁻¹"},
      {"measurement": "k5", "setting": "[4]; [11]", "result": 0.027, "unit": "min⁻¹"},
      {"measurement": "Finact", "setting": "[4]; kinetic model fit, kinetics of MIC formation, CYP2D6-PLS", "result": "0.423 and 0.42"},
      {"measurement": "Kd", "setting": "[5]", "result": 23.9, "unit": "µM"},
      {"measurement": "reversibility of inactivation of CYP2D6", "setting": "[5]; CYP2D6-PLS", "result": "reversible"},
      {"measurement": "Kobs (TDI)", "setting": "[5]; [10]", "result": 0.15, "unit": "min⁻¹"},
      {"measurement": "maximal depth of TDI at enzyme saturation with MDMA", "setting": "[5]; CYP2D6-PLS, DXM as probe substrate, Michaelis-Menten fit", "result": "80±8", "unit": "%"},
      {"measurement": "relative amplitude of TDI at MDMA saturation", "setting": "[5]; CYP2D6-PLS, rate of BMAMC metabolism", "result": "over 80%"},
      {"measurement": "k3", "setting": "[5]; kinetic model fit, TDI", "result": 3.2, "unit": "min⁻¹"},
      {"measurement": "k4", "setting": "[5]; kinetic model fit, TDI", "result": 0.085, "unit": "min⁻¹"},
      {"measurement": "k5", "setting": "[5]; kinetic model fit, TDI", "result": 0.033, "unit": "min⁻¹"},
      {"measurement": "k6", "setting": "[5]; kinetic model fit, TDI, MDMA-independent inactivation", "result": 0.005, "unit": "min⁻¹"},
      {"measurement": "Finact", "setting": "[5]; kinetic model fit, TDI, value fixed from MIC analysis", "result": 0.42},
      {"measurement": "Kd", "setting": "[6]", "result": 49.5, "unit": "µM"},
      {"measurement": "MDMA concentration after incubation", "setting": "[6]; CYP2D6-PLS with NADPH, 1 hour, initial 5 μM MDMA", "result": 1.5, "unit": "µM"},
      {"measurement": "decrease in MDMA concentration", "setting": "[6]; CYP2D6-PLS with NADPH, 1 hour, initial 100 μM MDMA", "result": "≤ 30 % of the initial concentration"},
      {"measurement": "k3", "setting": "[6]; [12]", "result": 3.9, "unit": "min⁻¹"},
      {"measurement": "k4", "setting": "[6]; [12]", "result": 0.14, "unit": "min⁻¹"},
      {"measurement": "k5", "setting": "[6]; [12]", "result": 0.047, "unit": "min⁻¹"},
      {"measurement": "k6", "setting": "[6]; kinetic model fit, kinetics of DHMA production, MDMA-independent inactivation", "result": 0.041, "unit": "min⁻¹"},
      {"measurement": "Finact", "setting": "[6]; kinetic model fit, kinetics of DHMA production, value fixed from MIC analysis", "result": 0.42},
      {"measurement": "Amax (MIC)", "setting": "[7]", "result": 49, "unit": "%"},
      {"measurement": "Kobs (MIC)", "setting": "[7]", "result": 0.19, "unit": "min⁻¹"},
      {"measurement": "maximal amplitude of the spin shift (Amax)", "setting": "[1]", "result": "8.1% and 10.9±5.5%"},
      {"measurement": "Kd", "setting": "[1]", "result": "24 µM and 27.9 µM"},
      {"measurement": "Kobs (TDI)", "setting": "[8]", "result": 0.28, "unit": "min⁻¹"},
      {"measurement": "Kd", "setting": "human CYP2D6", "result": "21.8 ± 7.7", "unit": "µM"},
      {"measurement": "maximal amplitude of the spin shift", "setting": "human CYP2D6", "result": "6.0± 1.5", "unit": "%"}
    ]},
    {"molecule": "COc1cc([C@@H]2c3cc4c(cc3[C@H](O)[C@H]3COC(=O)[C@H]23)OCO4)cc(OC)c1OC", "note": "[podophylotoxin]", "values": [
      {"measurement": "reversibility of the Fe2+:carbene complex (MIC)", "setting": "CYP3A4", "result": "virtually irreversible"}
    ]},
    {"molecule": "B1", "values": [
      {"measurement": "Km", "setting": "[9]", "result": 3.5, "unit": "µM"}
    ]}
  ]
}
